Source: patent US20240246948A1, “BENZAMIDE DERIVATIVE, METHOD FOR PREPARING SAME, AND PHARMACEUTICAL COMPOSITION FOR PREVENTION OR TREATMENT OF CANCER CONTAINING SAME AS ACTIVE INGREDIENT” (HK INNO.N CORPORATION, priority 2021, published 2024)

Tests used:
[1] = molecular target: Ba/F3 EGFR L858R/T790M/C797S (LTC) (Homo sapiens, UniProt P00533, T790M/C797S/L858R, cells depend on it); experiment: Cell growth inhibitory ability in Ba/F3 cells overexpressing EGFR L858R/T790M/C797S (MTS, CellTiter 96 AQueous); type: cell-based; settings: 72 hours, MTS absorbance at 490 nm, read-out: Ba/F3 EGFR triple mutant L858R/T790M/C797S, IC50
Protocol: (§1) In order to confirm that the compound represented by formula 1 provided in one aspect of the present invention acts as an allosteric inhibitor against WT and mutant of EGFR, the cell growth inhibitory effect was evaluated in BaF3 cells overexpressing WT and mutant of EGFR.
(§2) More specifically, the cell growth inhibitory ability of the compound of the present invention to the Ba/F3 cell line overexpressing WT and mutant of EGFR was evaluated using CellTiter 96 AQueous Non-Radioactive Cell Proliferation Assay system of Promega, as follows. AQueous Non-Radioactive Cell Proliferation Assay is a method of confirming cell growth inhibitory ability by measuring the degree of color development by reducing MTS (3-(4,5-Dimethylthiazol-2-yl)-5-(3-carboxymethoxyphenyl)-2-(4-sulfophenyl)-2H-tetrazolium) to Formazan by a reductase secreted by mitochondria present in living cells in a cell culture state. The Ba/F3 EGFR WT and Ba/F3 EGFR del19/T790M/C797S (DTC), Ba/F3 EGFR L858R (L), Ba/F3 EGFR L858R/T790M (LT), and Ba/F3 EGFR L858R/T790M/C797S (LTC) mutation cell lines used in the present invention were purchased from the laboratory of Professor Byung-cheol Cho, Yonsei University. All cell lines were cultured in RPMI supplemented with 10% FBS, 1% penicillin-streptomycin and 1 μg/ml of puromycine in a 5% CO2 incubator at 37° C.
(§3) The cell survival inhibitory effect of the compound according to each EGFR mutation was analyzed by the following analysis method.
(§4) BaF3 cells were distributed in a 96-well cell culture plate at the density of 2000˜10000 cells/100 μL/well, and cultured for 24 hours. Thereafter, the concentration of the compound represented by formula 1 provided in one aspect of the present invention was prepared to double the final concentrations of 0.1 nM, 1 nM, 10 nM, 100 nM, 1000 nM and 10000 nM, and the compound was treated to the plate (100 μL/well). The plate was reacted in an incubator at 37° C. for 72 hours. Then, MTS was treated to the plate (20 μL/well) and the plate was incubated at 37° C. for 2 to 4 hours. Finally, after measuring the absorbance at 490 nm using a microplate reader, the relative value compared to 0 nM (% Control) was obtained to confirm the cell growth inhibitory ability of the compound. The measured values were analyzed using Prism program (version 8.0, Graphpad Software, Inc.), and the IC50 value (Inhibition concentration 50), an indicator of the cell growth inhibitory ability of the compound, was calculated.

[2] = molecular target: Ba/F3 EGFR L858R/T790M (LT) (Homo sapiens, UniProt P00533, T790M/L858R, cells depend on it); experiment: Cell growth inhibitory ability in Ba/F3 cells overexpressing EGFR L858R/T790M (MTS, CellTiter 96 AQueous); type: cell-based; settings: 72 hours, MTS absorbance at 490 nm, read-out: Ba/F3 EGFR double mutant L858R/T790M, IC50
Protocol: as §1, §2, §3, §4

Chain of Ba/F3 EGFR L858R/T790M/C797S (LTC) (P00533 whole entry T790M/C797S/L858R): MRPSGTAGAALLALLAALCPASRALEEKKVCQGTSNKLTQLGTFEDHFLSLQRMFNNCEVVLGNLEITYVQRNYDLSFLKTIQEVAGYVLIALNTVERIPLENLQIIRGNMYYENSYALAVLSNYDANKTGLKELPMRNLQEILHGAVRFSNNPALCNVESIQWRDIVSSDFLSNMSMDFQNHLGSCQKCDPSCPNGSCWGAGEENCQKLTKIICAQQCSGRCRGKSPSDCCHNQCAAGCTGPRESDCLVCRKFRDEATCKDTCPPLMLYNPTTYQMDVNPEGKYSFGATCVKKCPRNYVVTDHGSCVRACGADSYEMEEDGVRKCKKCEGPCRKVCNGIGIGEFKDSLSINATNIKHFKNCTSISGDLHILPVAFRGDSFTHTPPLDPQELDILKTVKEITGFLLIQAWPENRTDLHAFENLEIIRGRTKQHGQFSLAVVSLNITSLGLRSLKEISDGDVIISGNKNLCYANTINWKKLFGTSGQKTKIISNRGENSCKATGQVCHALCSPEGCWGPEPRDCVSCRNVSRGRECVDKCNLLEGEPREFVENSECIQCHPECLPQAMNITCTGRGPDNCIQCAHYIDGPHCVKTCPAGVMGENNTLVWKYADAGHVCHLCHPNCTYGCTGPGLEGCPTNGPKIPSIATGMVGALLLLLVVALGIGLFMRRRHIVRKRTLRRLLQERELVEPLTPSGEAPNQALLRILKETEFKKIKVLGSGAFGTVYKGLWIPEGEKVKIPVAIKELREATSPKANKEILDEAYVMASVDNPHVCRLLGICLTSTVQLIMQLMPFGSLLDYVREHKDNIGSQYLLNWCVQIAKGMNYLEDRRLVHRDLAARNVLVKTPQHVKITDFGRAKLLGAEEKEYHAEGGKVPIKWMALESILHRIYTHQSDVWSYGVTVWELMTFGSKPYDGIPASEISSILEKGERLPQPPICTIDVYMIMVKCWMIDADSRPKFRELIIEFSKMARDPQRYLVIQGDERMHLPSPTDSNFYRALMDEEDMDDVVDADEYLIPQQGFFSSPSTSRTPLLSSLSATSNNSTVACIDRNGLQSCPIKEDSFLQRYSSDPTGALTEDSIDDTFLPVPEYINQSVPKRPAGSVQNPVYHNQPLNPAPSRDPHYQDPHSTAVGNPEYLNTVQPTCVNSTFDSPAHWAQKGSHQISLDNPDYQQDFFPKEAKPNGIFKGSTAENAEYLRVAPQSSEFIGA
Chain of Ba/F3 EGFR L858R/T790M (LT) (P00533 whole entry T790M/L858R): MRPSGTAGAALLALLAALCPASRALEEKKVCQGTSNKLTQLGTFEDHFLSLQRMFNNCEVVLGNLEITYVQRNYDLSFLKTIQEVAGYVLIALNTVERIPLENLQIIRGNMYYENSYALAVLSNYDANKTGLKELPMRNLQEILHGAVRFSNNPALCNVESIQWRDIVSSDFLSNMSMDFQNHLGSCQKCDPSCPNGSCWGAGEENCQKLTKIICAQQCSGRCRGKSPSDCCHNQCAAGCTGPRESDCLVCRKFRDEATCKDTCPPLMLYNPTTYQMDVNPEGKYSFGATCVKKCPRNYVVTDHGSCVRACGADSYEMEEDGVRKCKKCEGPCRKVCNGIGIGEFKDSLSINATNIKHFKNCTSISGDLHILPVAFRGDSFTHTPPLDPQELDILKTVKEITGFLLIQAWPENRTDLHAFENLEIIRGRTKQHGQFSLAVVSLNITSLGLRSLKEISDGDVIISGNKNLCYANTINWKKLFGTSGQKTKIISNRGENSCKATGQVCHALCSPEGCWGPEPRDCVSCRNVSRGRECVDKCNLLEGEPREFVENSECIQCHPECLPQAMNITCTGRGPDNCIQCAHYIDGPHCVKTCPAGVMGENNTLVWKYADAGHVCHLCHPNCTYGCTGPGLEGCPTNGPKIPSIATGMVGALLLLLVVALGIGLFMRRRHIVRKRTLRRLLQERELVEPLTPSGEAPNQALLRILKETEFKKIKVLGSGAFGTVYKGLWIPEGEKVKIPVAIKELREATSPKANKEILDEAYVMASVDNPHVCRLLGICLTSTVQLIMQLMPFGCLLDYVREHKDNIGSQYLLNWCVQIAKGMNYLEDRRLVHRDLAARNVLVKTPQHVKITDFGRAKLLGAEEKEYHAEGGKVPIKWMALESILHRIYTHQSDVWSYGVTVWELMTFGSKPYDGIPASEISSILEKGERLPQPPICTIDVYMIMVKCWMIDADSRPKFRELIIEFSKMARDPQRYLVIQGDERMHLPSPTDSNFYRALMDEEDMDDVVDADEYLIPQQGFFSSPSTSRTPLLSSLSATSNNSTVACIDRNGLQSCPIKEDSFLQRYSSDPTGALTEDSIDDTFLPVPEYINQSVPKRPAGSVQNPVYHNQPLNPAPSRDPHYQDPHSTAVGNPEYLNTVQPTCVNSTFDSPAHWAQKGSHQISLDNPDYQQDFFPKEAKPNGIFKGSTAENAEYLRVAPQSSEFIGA

Compound: CSc1cc(C(=O)N[C@@H](c2cc3ccccc3[nH]2)c2cc(F)ccc2O)cc(-c2ccc(N3CCC(N)CC3)cc2)c1 [Example 8, 4′-(4-aminopiperidine-1-yl)-N-((5-fluoro-2-hydroxyphenyl)(1H-indole-2-yl)methyl)-5-(methylthio)-[1,1′-biphenyl]-3-carboxamide]
- GI50 [1]: > 200 nM
- GI50 [2]: > 200 nM

Compound: Cc1cc(C(=O)N[C@@H](c2cc3ccccc3[nH]2)c2cc(F)ccc2O)cc(-c2cnc(N3CCC(N)CC3)nc2C)c1 [Example 34, (R)-3-(2-(4-aminopiperidine-1-yl)-4-methylpyrimidine-5-yl)-N-((5-fluoro-2-hydroxyphenyl)(1H-indole-2-yl)methyl)-5-methylbenzamide]
- GI50 [1]: 30 to 200 nM
- GI50 [2]: < 30 nM

Compound: Cc1cc(C(=O)N[C@@H](c2cc3ccccc3[nH]2)c2cc(F)ccc2O)cc(-c2ncc(N3CC[C@@H](N)C3)cn2)c1 [Example 44, 3-[5-[(3R)-3-aminopyrrolidine-1-yl]pyrimidine-2-yl]-N—[(R)-(5-fluoro-2-hydroxy-phenyl)-(1H-indole-2-yl)methyl]-5-methyl-benzamide]
- GI50 [1]: < 30 nM
- GI50 [2]: < 30 nM

Compound: NC1CCN(c2ccc(-c3cc(C(=O)N[C@@H](c4cc5ccccc5[nH]4)c4cc(F)ccc4O)cc(-n4ccnc4)c3)cc2)CC1 [Example 13, (R)-4′-(4-aminopiperidine-1-yl)-N-((5-fluoro-2-hydroxyphenyl)(1H-indole-2-yl)methyl)-5-(1H-imidazole-1-yl)-[1,1′-biphenyl]-3-carboxamide]
- GI50 [1]: > 200 nM
- GI50 [2]: > 200 nM

Compound: COc1ccc(F)cc1[C@@H](NC(=O)c1ccnc(-c2ccc(N3CCC(N)CC3)cc2)c1)c1cc2ccccc2[nH]1 [Example 15, (R)-2-(4-(4-aminopiperidine-1-yl)phenyl)-N-((5-fluoro-2-methoxyphenyl)(1H-indole-2-yl)methyl)isonicotinamide]
- GI50 [1]: > 200 nM
- GI50 [2]: > 200 nM

Compound: NC1CCN(c2ccc(-c3cc(OC(F)(F)F)cc(C(=O)N[C@@H](c4cc5ccccc5[nH]4)c4cc(F)ccc4O)c3)cc2)CC1 [Example 11, (R)-4′-(4-aminopiperidine-1-yl)-N-((5-fluoro-2-hydroxyphenyl)(1H-indole-2-yl)methyl)-5-(trifluoromethoxy)-[1,1′-biphenyl]-3-carboxamide]
- GI50 [1]: > 200 nM
- GI50 [2]: > 200 nM

Compound: Cc1cc(C(=O)N[C@@H](c2cc3ccccc3[nH]2)c2cc(F)ccc2O)cc(-c2ccc(N3CCC(N)CC3)cc2C)c1 [Example 23, (R)-4′-(4-aminopiperidine-1-yl)-N-((5-fluoro-2-hydroxyphenyl)(1H-indole-2-yl)methyl)-2′,5-dimethyl-[1,1′-biphenyl]-3-carboxamide]
- GI50 [1]: < 30 nM
- GI50 [2]: < 30 nM

Compound: N#Cc1cc(C(=O)N[C@@H](c2cc3ccccc3[nH]2)c2cc(F)ccc2O)cc(-c2ccc(N3CCC(N)CC3)cc2)c1 [Example 9, 4′-(4-aminopiperidine-1-yl)-5-cyano-N-((5-fluoro-2-hydroxyphenyl)(1H-indole-2-yl)methyl)-[1,1′-biphenyl]-3-carboxamide]
- GI50 [1]: > 200 nM
- GI50 [2]: > 200 nM

Compound: Cc1cc(C(=O)N[C@@H](c2cc3ccc(F)cc3[nH]2)c2cc(F)ccc2O)cc(-c2ccc(N3CCC(N)CC3)cc2)c1 [Example 26, (R)-4′-(4-aminopiperidine-1-yl)-N-((6-fluoro-1H-indole-2-yl)(5-fluoro-2-hydroxyphenyl)methyl)-5-methyl-[1,1′-biphenyl]-3-carboxamide]
- GI50 [1]: 30 to 200 nM
- GI50 [2]: < 30 nM

Compound: Cc1cc(C(=O)N[C@@H](c2cc3ccccc3[nH]2)c2cc(F)ccc2O)cc(-c2ccc(N3CCC(N)CC3)c(C)c2)c1 [Example 25, (R)-4′-(4-aminopiperidine-1-yl)-N-((5-fluoro-2-hydroxyphenyl)(1H-indole-2-yl)methyl)-3′,5-dimethyl-[1,1′-biphenyl]-3-carboxamide]
- GI50 [1]: < 30 nM
- GI50 [2]: < 30 nM

Compound: Cc1cc(C(=O)N[C@@H](c2cc3ccccc3[nH]2)c2cc(F)ccc2O)cc(-c2ccc(N3CCC(N)CC3)cc2F)c1 [Example 24, (R)-4′-(4-aminopiperidine-1-yl)-2′-fluoro-N-((5-fluoro-2-hydroxyphenyl)(1H-indole-2-yl)methyl)-5-methyl-[1,1′-biphenyl]-3-carboxamide]
- GI50 [1]: < 30 nM
- GI50 [2]: < 30 nM
